The values below come from patent US6399637B1, “Crystal modification of torasemide” (PLIVA, farmaceutska, kemijska, prehrambena i kozmeticka …, priority 1998, dated 2002).

What all share (format): physicochemical
A short description of series [1]: Dissolution test of torasemide in water (USP 23). The conditions noted are these: for % Dissolved torasemide: water, USP 23, 37° C., 50 rpm., 1000 ml. The method, then: (§1) The microcrystallinic modifications I, II and III of torasemide prepared according to Acta Crst. B34 (1978), 1304-1310 and Example 1 were subjected to dissolution testing in water, and in artificial intestinal juice, at 37° C.

A short description of series [2]: Dissolution test in artificial intestinal juice (USP 23). The method, then:
as §1

Series [3] can be described thus: Stability of the crystal modification on storage and at increased humidity.
Series [4] can be described thus: Intrinsic Dissolution Rate in a model of artificial gastric juice.

Turning to `Cc1cccc(Nc2ccncc2S(=O)(=O)NC(=O)NC(C)C)c1` [Mod. I, N-(1-methylethylaminocarbonyl)-4-(3-methyl-phenylamino)-3-pyridinesulfonamide], the “% Dissolved torasemide” value worked out at 0% in series [1] (0 minutes); 6.7% in series [1] (10 minutes); 13.0% in series [1] (20 minutes); 18.5% in series [1] (30 minutes); 23.5% in series [1] (40 minutes); 28.5% in series [1] (50 minutes). Also, the “% Dissolved torasemide” value in series [1] (60 minutes) is reported as 32.8%.
For `Cc1cccc(Nc2ccncc2S(=O)(=O)NC(=O)NC(C)C)c1` [Mod. II, N-(1-methylethylaminocarbonyl)-4-(3-methyl-phenylamino)-3-pyridinesulfonamide], the “% Dissolved torasemide” value in series [1] (0 minutes) worked out at 0%; in series [1] (10 minutes) it was 15.1%; in series [1] (20 minutes) it was 27.8%; in series [1] (30 minutes) it was 39.2%; in series [1] (40 minutes), 48.8%; in series [1] (50 minutes) it was 56.3%. Moreover, the “% Dissolved torasemide” value in series [1] (60 minutes) was determined as 65.1%.
Take `Cc1cccc(Nc2ccncc2S(=O)(=O)NC(=O)NC(C)C)c1` [Mod. III, N-(1-methylethylaminocarbonyl)-4-(3-methyl-phenylamino)-3-pyridinesulfonamide]: the “dissolution profile (USP 23) in comparison to known crystal modifications I and II” value in series [2] and in series [1] (in water) was “significant difference” throughout. Also, the “% Dissolved torasemide” value in series [1] (0 minutes) was found to be 0%; in series [1] (10 minutes) it was 15.6%; in series [1] (20 minutes), 28.1%; in series [1] (30 minutes) it was 37.7%; in series [1] (40 minutes) it was 43.6%; in series [1] (50 minutes), 48.5%. The “% Dissolved torasemide” value in series [1] (60 minutes) is listed as 51.1%. Further, the “stability of the crystal modification (no transformation into modification I or II)” value in series [3] (normal storage conditions) and in series [3] (subjected to increased humidity) was “stable” throughout. Further, the “IDR (Intrinsic Dissolution Rate)” value in series [4] is reported as “exceeds 1 mg cm^−2min^−1”.
